The subject of series [1] is Nc1nc2c(ncn2[C@@H]2O[C@H](COP(=O)(O)OP(=O)(O)OP(=O)(O)O)[C@@H](O)[C@H]2O)c(=O)[nH]1. As to the kind of experiment: purified protein, by the assay type. As to conditions: other: ATPase/GTPase activity as a function of nucleotide concentration, fitted with positive cooperativity; proteoliposomes; pH 8.0. It counts as biochemical, Streptococcus pneumoniae. As to the method:
(§1) E. coli BL21(DE3) cells were transformed with pRSF-Duet1-BceAB WT, K48A or E170Q and selected on LB-agar plates containing 50 μg/mL kanamycin. One colony was inoculated into in 2L-baffled flasks containing 500 mL of 2YT medium and 50 μg/mL kanamycin and grown at 37°C, 180 rpm to OD600 of 0.6. Protein expression was induced by adding IPTG to a final concentration of 1 mM. Induction was performed overnight at 25°C and cells were harvested by centrifugation at 7,000 g for 20 min.
(§2) Cells were resuspended in buffer A (HEPES-NaOH 100 mM pH 8.0, NaCl 150 mM) and lysed by passaging them three times through a cell disruptor (Microfluidizer, Microfluidics) at 18,000 psi (or 1,24 x 108 Pa). Undisrupted cells and cell debris were removed by centrifugation at 15,000 x g for 30 min at 4°C. Membranes were harvested from the supernatant after ultracentrifugation at 150,000 x g for 1 h at 4°C. Membranes were resuspended in 20 mL of buffer A and centrifuged once again at 150,000 x g for 1 h at 4°C. Membrane pellets were homogenized in buffer HEPES-NaOH 100 mM pH 8.0, NaCl 150 mM and 20% glycerol, and stored at -80°C.
(§3) For the purification of BceAB, membranes from 0,5 L cell culture were diluted in buffer B (100 mM d’HEPES-NaOH pH 8, 150 mM NaCl, 10% glycerol) to a protein concentration of 4 mg/mL and solubilized with 0.5% (w/v) LMNG for 2 h at 4°C. After ultracentrifugation at 150,000 x g for 1 h at 4°C, the supernatant containing solubilized proteins was diluted four times using buffer B and loaded on Ni^2+-charged immobilized metal-ion affinity chromatography (IMAC) column (1 mL HisTrap HP, Cytiva). The column was washed with 10 mL of buffer B containing 0.005% (w/v) LMNG and 20 mM of imidazole. The column was further washed with the same buffer until OD280nm reached basal levels. BceAB was eluted by buffer B containing 0.005% (w/v) LMNG and an imidazole gradient from 20 to 500 mM of imidazole. Purified BceAB was dialyzed into buffer B containing 0.005% (w/v) LMNG and stored at -80°C.
(§4) The proteoliposomes were prepared as previously described for the transporter BmrA [50]. Proteoliposomes were loaded on sucrose gradient with different layers of 400 μL of 50 mM HEPES-KOH pH 8.0 buffer containing 30, 20, 15 or 10% of sucrose. One mL of proteoliposomes was loaded on the top of the sucrose gradient and ultra-centrifuged at 200,000 x g for 12 h at 4°C. Proteoliposomes were typically collected from the 15% layer and were loaded on SDS-PAGE to analyze and quantify the presence of BceAB by using a standard-curve of purified BceAB and ImageJ.
(§5) These activities were performed as previously described.

Series [2] relates to Nc1ncnc2c1ncn2[C@@H]1O[C@H](COP(=O)(O)OP(=O)(O)OP(=O)(O)O)[C@@H](O)[C@H]1O. As to the kind of experiment: purified protein, by the assay type. It counts as biochemical, Streptococcus pneumoniae. As to conditions: other: ATPase/GTPase activity as a function of nucleotide concentration, fitted with positive cooperativity; proteoliposomes; pH 8.0. The method, then:
as §1, §2, §3, §4, §5

The subject of series [3] is S. pneumoniae R6 WT and mutant strains. As to the kind of experiment: Susceptibility to HNP-1 (colony counts). It counts as cell-based, Streptococcus pneumoniae. As to conditions: R6 WT versus mutant strains, 5, 10 or 20 μg/ml, 30 min, 1 h or 2 h, 37°C, preliminary work (S7 Fig). The method, then:
Bacterial cells were routinely grown until OD600nm = 0.3 in THY and 5 mL of culture were centrifuged for 10 min at 5,000 g at 4°C. The pellet was resuspended in 5 ml of sterile PBS buffer and diluted twice at 1/100. 200 μl of the final dilution was incubated for 30 min, 1 h or 2 h at 37°C, 5% CO2 in 96-well plate with 5, 10 or 20 μg/ml of hNP1. Next, 10 μl from the final dilution (control cells at time zero in the absence of HNP-1) and the 96-well plate (cells incubated with HNP1) were plated onto pre-cast THY-agar medium supplemented with 4% defibrinated horse blood and incubated overnight at 37°C, […]. The next day, colonies were counted.

In series [4] the target is BceAB transporter from S. pneumoniae (Streptococcus pneumoniae, UniProt A0A0H2ZN40). The series is classed as biochemical. As to conditions: BceAB proteoliposomes; Fig 7B; triplicates, representative of at least two experiments. The method, then:
as §1, §2, §3, §4, §5

The next series relates to S. pneumoniae D39 Δtcs01. The series is classed as cell-based, Streptococcus pneumoniae. As to conditions: D39 strain; 2-fold broth dilution, Todd-Hewitt medium, 37°C, 15 h; two to four biological replicates, each technical duplicates. As to the method: (§6) The MIC of various antimicrobial peptides for R6, R800 and D39 strains was determined by classical 2-fold broth dilution method. Cells were first grown in Todd-Hewitt medium at 37°C without agitation and in anaerobic conditions until the absorbance reaches approximatively 0.3. Complementation strains were grown with 0.5 μM ComS inducer until the appropriate OD. Cells were then diluted at final OD600nm = 0.002 in 96-well plates containing 300 μL of Todd-Hewitt medium (and 2 μM ComS inducer for the complementation strains) with serial dilutions of antimicrobial peptides. Pneumococcal growth was monitored by a microplate reader (TECAN) at 37°C without agitation. The absorbance was followed at 600 nm every 15 min for 15 h.
(In general: Broth dilution looks for growth in wells or tubes with falling amounts of substance.)

Another series concerns S. pneumoniae R6 Δtcs01. It counts as cell-based, Streptococcus pneumoniae. As to conditions: R6 strain; 2-fold broth dilution, Todd-Hewitt medium, 37°C, 15 h; two to four biological replicates, each technical duplicates. The method, then: as §6
A further series relates to S. pneumoniae R800 Δhk01. It counts as cell-based, Streptococcus pneumoniae. As to conditions: R800 strain; 2-fold broth dilution, Todd-Hewitt medium, 37°C, 15 h; at least biological triplicates, each technical duplicates. The method, then:
as §6

Series [5] relates to S. pneumoniae R6 ΔbceAB/tcs01. It counts as cell-based, Streptococcus pneumoniae. As to conditions: R6 strain; 2-fold broth dilution, Todd-Hewitt medium, 37°C, 15 h; two to four biological replicates, each technical duplicates. As to the method:
as §6

Series [6] concerns S. pneumoniae R800 ΔbceAB-Δhk01-PcomX-hk01. The series is classed as cell-based, Streptococcus pneumoniae. As to conditions: R800 complementation strain, 2 μM ComS inducer; 2-fold broth dilution, Todd-Hewitt medium, 37°C, 15 h; at least biological triplicates, each technical duplicates. As to the method: as §6
Series [7] relates to S. pneumoniae R800 ΔbceAB. The series is classed as cell-based, Streptococcus pneumoniae. As to conditions: R800 strain; 2-fold broth dilution, Todd-Hewitt medium, 37°C, 15 h; at least biological triplicates, each technical duplicates. The method, then: as §6
Series [8] concerns S. pneumoniae R800 bceAB-gfp. It counts as cell-based, Streptococcus pneumoniae. As to conditions: R800 strain; 2-fold broth dilution, Todd-Hewitt medium, 37°C, 15 h; at least biological triplicates, each technical duplicates. As to the method:
as §6

Another series deals with S. pneumoniae R6 WT. The series is classed as cell-based, Streptococcus pneumoniae. As to conditions: R6 strain. The method, then: as §6
The subject of series [9] is S. pneumoniae D39 ΔbceAB/tcs01. It counts as cell-based, Streptococcus pneumoniae. As to conditions: D39 strain; 2-fold broth dilution, Todd-Hewitt medium, 37°C, 15 h; two to four biological replicates, each technical duplicates. The method, then:
as §6

For series [10], the system named is S. pneumoniae R800 Δhk01-PcomX-hk01. The series is classed as cell-based, Streptococcus pneumoniae. As to conditions: R800 complementation strain, 2 μM ComS inducer; 2-fold broth dilution, Todd-Hewitt medium, 37°C, 15 h; at least biological triplicates, each technical duplicates. As to the method: as §6
A further series has as its system S. pneumoniae D39 WT. The series is classed as cell-based, Streptococcus pneumoniae. As to conditions: D39 strain. The method, then: as §6
In the next series the test system is S. pneumoniae R800 WT. It counts as cell-based, Streptococcus pneumoniae. As to conditions: R800 strain; 2-fold broth dilution, Todd-Hewitt medium, 37°C, 15 h; at least biological triplicates, each technical duplicates. The method, then:
as §6

Another series concerns S. pneumoniae D39 ΔbceAB. The series is classed as cell-based, Streptococcus pneumoniae. As to conditions: D39 strain; 2-fold broth dilution, Todd-Hewitt medium, 37°C, 15 h; two to four biological replicates, each technical duplicates. The method, then:
as §6

A further series has as its system S. pneumoniae R6 ΔbceAB. It counts as cell-based, Streptococcus pneumoniae. As to conditions: R6 strain; 2-fold broth dilution, Todd-Hewitt medium, 37°C, 15 h; two to four biological replicates, each technical duplicates. As to the method:
as §6

In series [11] the test system is bceAB and tcs01 genes in S. pneumoniae D39 WT. As to the kind of experiment: Quantification of gene expression by qPCR. It counts as cell-based, Streptococcus pneumoniae. As to conditions: D39 wild-type; vancomycin 375 ng/ml for 15 min; n = 8. The method, then:
S. pneumoniae D39 WT and Δtcs01 strains were routinely grown to OD600nm = 0.3 in THY. Then 1 μg/mL of bacitracin was added to the growth media for up to 30 min. Samples were taken at time points shown in the results section. Next, the cultures were mixed with RNA protect (Qiagen) at 1:1 ratio and incubated at room temperature for 5 min and centrifuged for 10 min at 3, 200 g at 4°C. The supernatant was decanted and the pellet was stored at -80°C. The bacteria were resuspended in 100 μL of sterile Tris-EDTA (TE), containing 15 mg/mL lysozyme (Sigma) then 20 μL of Proteinase K (20 mg/mL) (Roche) were added. The sample was vortexed 5 times for 10 sec at two-minutes intervals. Then 350 μL of lysis buffer from the Nucleospin RNA kit (Macherey-Nagel) were added to the sample with 3.5 μL of β-mercaptoethanol and 25 mg of glass beads (Sigma). The cells were lysed by continual vortexing for 5 min. The mRNA was extracted according to the manufacturer’s instructions. After elution, RNA samples were incubated with 5 μL of DNAse for 20 min at room temperature, then inactivated by heating for 70°C for 5 min. RNA concentration was measured using Nanovue (GE Healthcare). For cDNA synthesis 1 μg of RNA was generally used with the SuperScript III kit (Invitrogen) containing a reverse transcriptase, a set of primers, dNTPs, MgCl2 random hexamers and […] after the cDNA generation according to manufacturer’s instructions. Samples were then stored at -20°C. qPCR measurements were done with 2.5 μL of cDNA mixed with 1 μL (3 μM final) of forward and reverse primers, 5 μL iQ SYBR Green Supermix (BioRad) and 0.5 μL water using the CFX Connect Optical Module (BioRad) program as follows: 95°C for 3 min, then a repeat 40 times of 95°C for 10 sec, 55°C for 30 sec, and a fluorescence reading.

≈ marks a conversion by molar mass, not a printed value.

What is called Km is the concentration of substrate that gives half-maximal velocity. With “BceAB transporter from S. pneumoniae (Streptococcus pneumoniae D39)”, the Km was found to be 1300 µM in [1] and 1000 µM in series [2].
In the case of “HNP1: human neutrophil defensin HNP1; purchased from Vivitide”, the “Resistance promoted by BceAB” value in series [3] is “does not promote resistance”.
Take `CN[C@H](CC(C)C)C(=O)N[C@H]1C(=O)N[C@@H](CC(N)=O)C(=O)N[C@H]2C(=O)N[C@H]3C(=O)N[C@H](C(=O)N[C@H](C(=O)O)c4cc(O)cc(O)c4-c4cc3ccc4O)[C@H](O)c3ccc(c(Cl)c3)Oc3cc2cc(c3O[C@@H]2O[C@H](CO)[C@@H](O)[C@H](O)[C@H]2O[C@H]2C[C@](C)(N)[C@H](O)[C@H](C)O2)Oc2ccc(cc2Cl)[C@H]1O` [vancomycin]: the “Effect on ATPase activity of BceAB” value in series [4] is “did not significantly affect”. Further, the entries for the “Minimum Inhibitory Concentration, Δtcs01” value in the series with S. pneumoniae D39 Δtcs01 and in the series on S. pneumoniae R6 Δtcs01 were 0.25 µg/mL and 0.5 µg/mL, respectively. Besides, in the series with S. pneumoniae R800 Δhk01, the “MIC, Δhk01” value stood at 0.25 µg/mL (≈ 0.173 µM). The results for the “Minimum Inhibitory Concentration, ΔbceAB/tcs01” value in series [5] and in [9] were 0.5 µg/mL and 0.25 µg/mL, respectively. Also, the “MIC, ΔbceAB-Δhk01-PcomX-hk01” value in [6] was 0.25 µg/mL (≈ 0.173 µM). Further, the “MIC, ΔbceAB” value in series [7] was determined as 0.25 µg/mL (≈ 0.173 µM). In addition, the “MIC, bceAB-gfp” value in [8] turned out to be 0.25 µg/mL (≈ 0.173 µM). The “Minimum Inhibitory Concentration, WT” value in the series with S. pneumoniae R6 WT (2-fold broth dilution, Todd-Hewitt medium, 96-well plates, start OD600 0.002, 37°C, A600 followed 15 h, two to four biological replicates, each technical duplicates) is 0.5 µg/mL; in the series on S. pneumoniae D39 WT (2-fold broth dilution, Todd-Hewitt medium, 37°C, 15 h, two to four biological replicates, each technical duplicates), 0.25 µg/mL. In addition, the “Fold sensitivity displayed by the KO strains” value with S. pneumoniae R6 WT (KO strains versus WT MIC) worked out at 1. Further, in series [10], the “MIC, Δhk01-PcomX-hk01” value was determined as 0.25 µg/mL (≈ 0.173 µM). Further, the “Fold sensitivity diplayed by the KO strains” value in the series on S. pneumoniae D39 WT (KO strains versus WT MIC) is 1. The “MIC, WT” value with S. pneumoniae R800 WT came out at 0.25 µg/mL (≈ 0.173 µM). Further, the “Minimum Inhibitory Concentration, ΔbceAB” value in the series with S. pneumoniae D39 ΔbceAB is 0.25 µg/mL; in the series on S. pneumoniae R6 ΔbceAB, 0.5 µg/mL. In [11], the “Transcription of the bceAB genes” value is “no upregulation”.

Source of the values: publication PMC9020739, “Identification of a two-component regulatory system involved in antimicrobial peptide resistance in Streptococcus pneumoniae” (PLoS Pathogens, 2022).
